The text below walks through data of patent US12459930B2, “Compounds for the inhibition of unregulated cell growth” (GODAVARI BIOREFINERIES LIMITED, priority 2018, dated 2025).

Test [1] concerns MDAMB231 breast cancer cell line. The test can be described thus: Soft agar colony-formation assay, MDAMB231. Type of test: cell-based. The note with it: 1 week, Alamar Blue, read-out: IC50 in micromolar, MDAMB231 (Soft Agar Assay). The procedure:
(§1) The Soft Agar Colony-formation Assay is an anchorage-independent growth assay in soft agar, which is one of the most stringent assays for detecting malignant transformation of cells. For this assay, malignant cells are cultured with appropriate controls in soft agar medium for 1-2 weeks. Following this incubation period, formed colonies can either be analyzed morphologically using cell stain and quantifying the number of colonies formed.
(§2) Briefly, for Soft Agar Assay a mixture of 50 ul of 2× medium (taken appropriately as per cell line) and 50 ul of 1.2% Bacto Agar were plated on to each well of 96 well micro titer assay plate. 10 ul of cells (of specific plating efficiency pre standardized for respective cell line) were mixed with 20 ul of 2× medium and 30 ul of 0.8% of Bacto Agar and 1.6 ul of drug (of appropriate concentration) in a vial and transferred to the solidified pre layers of the assay plates. The cells were then allowed to grow and form colonies at 37° C. and 5% C02 for 1 week. An intermittent feeding with 50 ul of appropriate 2× medium was performed after 3 days of experimental set up. 16 ul of Alamar Blue (1.5 mg/ml) was then added to all the wells to quantify the developed colonies. The plates were incubated for 24 hrs at 37° C. Absorbance was then measured at 630 nm. XY graph of log Percent viability was then plotted against log drug concentration.
(§3) Following plating efficiencies were standardized for Soft Agar Assay: […]

Test [2] has as its system PC3 spheres (cancer stem cells). The test can be described thus: In vitro sphere-forming assay (cancer stem cells), PC3 in Prostosphere media. Particulars: for 3D sphere count of PC3 in Prostosphere media: 2000 cells/well, n = 6 ± S.D; for viability at 250 µM: read-out: % Viability of spheres (PC3), 250 uM.
Excerpt: (§7) In Vitro Sphere-forming Assay: Sphere assay measures the ability of cancer stem cells (CSCs) to form spheres in specially designed serum-free medium.
Materials and Reagents:50×B27 Supplement (Life Technologies, Invitrogen, Catlog No.: 17502-044), Fibroblast Growth Factor (FGF) (Sigma-Aldrich, Catlog No.: F029125), Epidermal Growth Factor (EGF) (Sigma-Aldrich, Catlog No.: E9644), Insulin (Sigma, Catlog No.: 19278), Dulbecco's Modified Eagle Medium/F12 (HiMedia Catlog No.: AL139-6), Dulbecco's Phosphate Buffered Saline (HiMedia Catlog No.: TL1006), Trypan Blue (TC193), Prostate Epithelial Media (LONZA, Catlog No.: CC-3166) MEGM (LONZA, Catlog No.: CC-3051), Heparin (Sigma, Catlog No.: H3393), Penstrep (HiMedia, Catlog No.: A002)
Prostosphere Media Preparation (For 100 mL): 1 g methyl cellulose autoclaved with magnetic stirrer, 100 mL plain media (Prostate Epithelial Basal Medium) was added and dissolved, under magnetic stirring. After complete dissolution, Insulin—40 μL, B27—2 mL, EGF—80 μL, Penstrep—1 ml was added.
(§8) Procedure—The cells were trypsinised and made into single-cell suspension by passing through cell strainers (100 μl and 40 μl, respectively), The cells were diluted at a concentration of 2000 cells/100 μL and suspended in either Mammosphere (for breast cell lines) or Prostosphere (for prostate cell lines). 100 μL of this suspension was added into each well of 96-well suspension plates and incubated at 37 C, 50 CO2 for 24 hrs. Appropriate concentrations of the drugs (2 L) were added into respective wells with 100 μL of stem cell culture medium. Plates were incubated at 37° C., 50% CO2 for 72 hrs. After incubation, 2.5 μL of the respective drug concentration and 50 μL of stem cell culture medium were added into each well and the plates were further incubated at 37° C., 500 CO2 for 72 hrs. 3 μL of the respective drug concentration was added with 50 μL of stem cell culture medium again after incubation and plates were reincubated for 72 hrs at 37° C., 500 CO2. Number of primary spheres formed for each concentration were counted. The spheres were converted to 0 viability of spheres compared to untreated (Growth Control with DMSO, GCD).
Test [3] deals with MDAMB231 spheres (cancer stem cells). Briefly: In vitro sphere-forming assay (cancer stem cells), MDAMB231 in Mammosphere media. Particulars: for 3D sphere count of MDAMB231 in Mammosphere media: 2000 cells/well, n = 6 ± S.D; for viability at 0.025 µM / viability at 0.25 µM / viability at 2.5 µM / viability at 25 µM / viability at 250 µM: Homo sapiens.
Description: as §7
Mammosphere Media Preparation (For 100 mL): 1 g methyl cellulose autoclaved with magnetic stirrer, 100 ml plain media (MEBM) was added and dissolved under magnetic stirring. After complete dissolution FGF—80 μL, EGF—40 μL, Penstrep—1 mL, Heparin—400 μL was added.
as §8
Test [4] concerns PC3 prostate cancer cell line. The test can be described thus: Soft agar colony-formation assay, PC3. Particulars: 1 week, Alamar Blue, read-out: IC50 in micromolar, PC3 (Soft Agar Assay). Type of test: cell-based. The procedure:
as §1, §2, §3
In general terms: The colour change of resazurin is a common sign of viable cells or microbes.

Test [5] concerns PC3 prostate cancer cell line. Briefly: In vitro antiproliferative assay (MTT assay), PC3. The class given is cell-based. Particulars: 48 hrs drug incubation, read-out: IC50 in micromolar, PC3 (MTT assay). As for the experimental part:
(§4) MTT assay is a simple and sensitive assay where, metabolic reducing activity of the cells is measured. The increase of this activity in time is taken as a parameter of cell growth. If treatment with a drug impairs this increase, the action is a consequence of growth inhibition, cell killing or both. […] All cell lines were cultured in a 37° C. incubator with a 5% CO2 environment. Compounds were dissolved in DMSO with a concentration of 0.1M (stock solution). Cells were seeded into 96-well plates at suitable plating efficiency.
(§5) Following plating efficiencies were standardized for MTT assay:
(§6) In the MTT procedure, the cells were plated in 96 well plates as per predetermined plating efficiency (Table1). The plates were then incubated for 24 hrs in 5% CO2 atmosphere at 37° C. Appropriate concentrations of the drugs were then added to the plate and further incubation was carried out for 48 hrs (in 5% CO2 atmosphere at 37° C.). The assay plate was then centrifuged twice at 3000 rpm for 3 mins and supernatant was then discarded. 100 ul of MTT solution (0.5 mg/ml) was then added to each well of the plate and it was further incubated for 4 hrs (in 5% CO2 atmosphere at 37° C.) Following 4 hr incubation, the plate was then centrifuged twice, and supernatant was aspirated off very carefully. 200 ul of DMSO was then added to each well to solubilize. MTT crystals and mixed well by shaking the plate. XY graph of log percent viability was then plotted against log drug concentration.
(Tetrazolium assays rely on reduction of a dye to a coloured formazan, in cell work by metabolically active cells.)

Test [6] has as its system MDAMB231 breast cancer cell line. The test can be described thus: In vitro antiproliferative assay (MTT assay), MDAMB231. Type of test: cell-based. The note with it: 48 hrs drug incubation, read-out: IC50 in micromolar, MDAMB231 (MTT assay). As for the experimental part:
as §4, §5, §6

The subject of test [7] is DU145 prostate cancer cell line. The test can be described thus: In vitro antiproliferative assay (MTT assay), DU145. The class given is cell-based. The note with it: 48 hrs drug incubation, read-out: IC50 in micromolar, DU145 (MTT assay). The procedure:
as §4, §5, §6

Setting [8] is: read-out: % Viability of spheres (PC3), 0.025 uM, GCD = 100% viability.
Setting [9] is: read-out: % Viability of spheres (PC3), 0.25 uM, GCD = 100% viability.
[10] abbreviates: read-out: % Viability of spheres (PC3), 2.5 uM, GCD = 100% viability.
The mark [11] stands for this setting: read-out: % Viability of spheres (PC3), 25 uM, GCD = 100% viability.
Setting [12] is: MDA-MB-231, read-out: % Viability of spheres (MDAMB231).
Where [13] appears, read: read-out: % Viability of spheres (PC3).

The structures appear in SMILES notation. “And” between values parts separate entries of the source, which are not always exact repeats. Equal entries are not always repeated. Where two headings read alike, the source gives them in different places.

For orientation: IC50 means the concentration needed to halve the response being measured. Turning to `N.N.[Cl][Pt][Cl]` [Cisplatin, reference compound], the IC50 in test [1] came out at 26.2 µM; in test [4] it was 33.4 µM; in test [5], 24 µM; in test [6], 29.4 µM; in test [7], 29.8 µM. Further, the “3D sphere count of PC3 in Prostosphere media” value (“3D sphere count of PC3” for short) in test [2] (250 uM) was 29(±2) and 29(±5) and 25(±2) and 27(±2). Also, the “3D sphere count of MDAMB231 in Mammosphere media” value (“3D sphere count of MDAMB231” below) in test [3] (250 uM) is 24(±3) and 25(±2).
Usually viability stands for the share of living cells, or the viability signal relative to a control. On to `CCOC(=O)N1CCN(CCCCCCOc2c3c(c(-c4ccc5c(c4)OCO5)c4cc(OC)c(OC)cc24)C(=O)OC3)CC1` [Formula III, ethyl 4-(6-(9-(benzo[d][1,3]dioxol-5-yl)-1,3-dihydro-6,7-dimethoxy-1-oxonaphtho[2,3-c]furan-4-yloxy)hexyl)piperazine-1-carboxylate], for which the IC50 in test [1] is 2.53 µM; in test [4], 4.84 µM; in test [5] (48 h), 2.36 µM; in test [6], 6.68 µM; in test [7], 5.41 µM. Also, the “3D sphere count of PC3” value in test [2] (0.025 uM) is listed as 49(±3); in test [2] (0.25 uM) it was 38(±4); in test [2] (2.5 uM), 29(±4); in test [2] (25 uM), 23(±3); in test [2] (250 uM), 0(±0). The viability at 0.025 µM in test [2] (setting [8]) came out at 63%; in test [3] (setting [12]), 53%. For the same compound, the viability at 0.25 µM was determined as 49% in test [2] (setting [9]) and 45% in test [3] (setting [12]). The viability at 2.5 µM stood at 37% in test [2] (setting [10]) and 39% in test [3] (setting [12]). Further, the viability at 25 µM in test [2] (setting [11]) was 29%; in test [3] (setting [12]) it was 22%. Further, the viability at 250 µM in test [2] (GCD = 100% viability) and in test [3] (setting [12]) was 0% each time. The “3D sphere count of MDAMB231” value is reported as 41(±2) in test [3] (0.025 uM); 35(±3) in test [3] (0.25 uM); 30(±4) in test [3] (2.5 uM); 17(±4) in test [3] (25 uM); 0(±0) in test [3] (250 uM).
For `c1ccc2c(-c3ccc4c(c3)OCO4)ccc(OCCCCCCN3CCOCC3)c2c1` [Formula IV, 4-(6-(1-(benzo[d][1,3]dioxol-5-yl)naphthalen-4-yloxy)hexyl)morpholine], the IC50 in test [1] (Homo sapiens, MDA-MB-231, 168 h) came to 2.59 µM; in test [4] (168 h), 7.5 µM; in test [5] (48 h), 3.79 µM; in test [6] it was 3.86 µM; in test [7], 3.16 µM. Moreover, the “3D sphere count of PC3” value in test [2] (0.025 uM) is 44(±3); in test [2] (0.25 uM), 35(±3); in test [2] (2.5 uM), 32(±3); in test [2] (25 uM), 22(±3); in test [2] (250 uM), 0(±0). Further, the viability at 0.025 µM in test [2] (setting [8]) came to 59%; in test [3] (setting [12]), 50%. The viability at 0.25 µM in test [2] (setting [9]) stood at 47%; in test [3] (setting [12]), 44%. Further, the viability at 2.5 µM was 43% in test [2] (setting [10]) and 31% in test [3] (setting [12]). The viability at 25 µM came to 29% in test [2] (setting [11]) and 13% in test [3] (setting [12]). In addition, the viability at 250 µM in test [2] (GCD = 100% viability) and in test [3] (setting [12]) was 0% in each case. Also, the “3D sphere count of MDAMB231” value is 40(±2) in test [3] (0.025 uM); 35(±2) in test [3] (0.25 uM); 25(±2) in test [3] (2.5 uM); 11(±2) in test [3] (25 uM); 0(±0) in test [3] (250 uM).
In the case of `Cl.c1ccc2c(-c3ccc4c(c3)OCO4)ccc(OCCCCCCN3CCOCC3)c2c1` [Formula V, 4-(6-(1-(benzo[d][1,3]dioxol-5-yl)naphthalen-4-yloxy)hexyl)morpholine hydrochloride], the IC50 in test [1] (hydrochloride) came out at 2.21 µM; in test [4] (hydrochloride) it was 3.98 µM; in test [5] (hydrochloride), 6.03 µM; in test [6] (hydrochloride) it was 9.25 µM; in test [7] (hydrochloride), 9.77 µM. Moreover, the “3D sphere count of PC3” value is given as 58(±3) in test [2] (0.025 uM); 49(±3) in test [2] (0.25 uM); 41(±2) in test [2] (2.5 uM); 30(±5) in test [2] (25 uM); 0(±0) in test [2] (250 uM). For the same compound, the viability at 0.025 µM in test [2] (setting [13]) was found to be 67%. In addition, the viability at 0.25 µM in test [2] (setting [13]) was found to be 57%; in test [3] (MDA-MB-231, read-out: % Viability of spheres (MDAMB231), 0.25 uM, GCD = 100% viability), 47%. Moreover, the viability at 2.5 µM in test [2] (setting [13]) amounted to 48%; in test [3] (MDA-MB-231, read-out: % Viability of spheres (MDAMB231), 2.5 uM, GCD = 100% viability) it was 33%. Also, the viability at 25 µM in test [2] (setting [13]) was found to be 35%; in test [3] (MDA-MB-231, read-out: % Viability of spheres (MDAMB231), 25 uM, GCD = 100% viability), 23%. For the same compound, the “3D sphere count of MDAMB231” value is 41(±5) in test [3] (0.025 uM); 39(±3) in test [3] (0.25 uM); 27(±3) in test [3] (2.5 uM); 19(±4) in test [3] (25 uM); 0(±0) in test [3] (250 uM).
